Reference: ChEMBL document CHEMBL2021832, “On the search for potential anti-Trypanosoma cruzi drugs: synthesis and biological evaluation of 2-hydroxy-3-methylamino and 1,2,3-triazolic naphthoquinoidal compounds obtained by click chemistry reactions” (Eur J Med Chem, 2012)
The source made the active and inactive calls. No cut-off for these calls is given here.

Legend:
[1] = system: Trypanosoma cruzi; assay: Trypanocidal activity against bloodstream form of Trypanosoma cruzi Y isolated from albino mouse blood after 24 hrs by neubauer chamber analysis; type: functional, organism-based
[2] = system: Biomphalaria glabrata; assay: Molluscicidal activity against Biomphalaria glabrata; type: functional, organism-based
[3] = system: Trypanosoma cruzi; assay: Ratio of benznidazole IC50 to compound IC50 for bloodstream form of Trypanosoma cruzi Y; type: functional
[4] = Selectivity index, ratio of LC50 for mouse embryo HMC to IC50 for bloodstream form of Trypanosoma cruzi Y
[5] = Cytotoxicity against mouse embryo HMC after 24 hrs by Alamar blue assay; details: mouse embryo HMC cells, read-out: LC50

SMILES	IC50 [1] [µM]	other results
O=C1C(O)=C(CNC2CCCC2)C(=O)c2ccccc21	361	Activity [2]: Active
O=C1C(O)=C(CN2CC3CCC2CC3)C(=O)c2ccccc21	397	Activity [2]: Active
O=C1C=C(O)C(=O)c2ccccc21 [LAWSONE]	> 2500	–
CC(C)(O)c1cn(C2=CC(=O)c3ccccc3C2=O)nn1	80.2	–
CCOC(=O)c1cn(C2=CC(=O)c3ccccc3C2=O)nn1	67.6	–
CC1(C)OC2=C(C(=O)C(=O)c3ccccc32)C1n1cc(-c2ccc([N+](=O)[O-])cc2)nn1 (stereo not given)	21.8	Ratio IC50 [3]: 2.5
O=C1C(Cl)=C(n2cc(-c3ccccc3)nn2)C(=O)c2ccccc21	42	–
O=C1C=C(n2cc(CO)nn2)C(=O)c2ccccc21	17.7	Ratio LC50/IC50 [4]: 6.1; Ratio IC50 [3]: 5.8; CC50 at 24 h [5]: 107 µM
COc1ccc(-c2cn(C3C4=C(OC3(C)C)c3ccccc3C(=O)C4=O)nn2)cc1 (stereo not given)	359	–
O=C1C(O)=C(CN2CCCC2)C(=O)c2ccccc21	396	Activity [2]: Active
O=C1C=C(n2cc(-c3ccc(Br)cc3)nn2)C(=O)c2ccccc21	492	–
[N-]=[N+]=NC1=CC(=O)c2ccccc2C1=O	41.6	–
Cc1ccc(-c2cn(C3=CC(=O)c4ccccc4C3=O)nn2)cc1	113	–
CC1(C)OC2=C(C(=O)C(=O)c3ccccc32)C1n1cc(-c2ccc(F)cc2)nn1 (stereo not given)	20.8	Ratio IC50 [3]: 2.5
COc1ccc(-c2cn(C3=CC(=O)c4ccccc4C3=O)nn2)cc1	45.8	–
CC(C)(CO)NCC1=C(O)C(=O)c2ccccc2C1=O	370	Activity [2]: Active
CC1(C)CC2=C(O1)c1ccccc1C(=O)C2=O [NOR-BETA-LAPACHONE]	> 4800	–
CC(C)=CCC1=C(OS(=O)(=O)c2ccc(C)cc2)C(=O)c2ccccc2C1=O	158	–
O=C1C=C(n2cc(-c3ccccc3)nn2)C(=O)c2ccccc21	10.9	Ratio LC50/IC50 [4]: 18.9; Ratio IC50 [3]: 9.5; CC50 at 24 h [5]: 206 µM
CC1(C)OC2=C(C(=O)C(=O)c3ccccc32)C1n1cc(-c2ccc(Br)cc2)nn1 (stereo not given)	102	–
Cc1ccc(-c2cn(C3C4=C(OC3(C)C)c3ccccc3C(=O)C4=O)nn2)cc1 (stereo not given)	39.6	Ratio IC50 [3]: 2.5
[N-]=[N+]=NC1=C(Cl)C(=O)c2ccccc2C1=O	51.8	Ratio IC50 [3]: 2
CC(C)=CCC1=C(OS(C)(=O)=O)C(=O)c2ccccc2C1=O	25.7	Ratio LC50/IC50 [4]: 0.6; CC50 at 24 h [5]: 16.7 µM
CCCN(CCC)CC1=C(O)C(=O)c2ccccc2C1=O	206	Activity [2]: Active
O=C1C=C(n2cc(-c3ccc([N+](=O)[O-])cc3)nn2)C(=O)c2ccccc21	2010	–
O=C1C=C(Cl)C(=O)c2ccccc21	12.3	Ratio LC50/IC50 [4]: 3.6; CC50 at 24 h [5]: 41.3 µM
